Data as given in ChEMBL document CHEMBL1147468, “Synthesis and anti-inflammatory effects of novel pimarane diterpenoid analogs” (Bioorg Med Chem Lett, 2004).
Calls of active or inactive are those of the source. The rule behind the calls is not given here.

What was measured:
[1] = target: T1, Prostaglandin G/H synthase 2 (Ovis aries, UniProt P79208); assay: In vitro inhibition of Prostaglandin G/H synthase 2 from sheep placental cotyledons; No activity
T1 sequence (P79208 whole entry): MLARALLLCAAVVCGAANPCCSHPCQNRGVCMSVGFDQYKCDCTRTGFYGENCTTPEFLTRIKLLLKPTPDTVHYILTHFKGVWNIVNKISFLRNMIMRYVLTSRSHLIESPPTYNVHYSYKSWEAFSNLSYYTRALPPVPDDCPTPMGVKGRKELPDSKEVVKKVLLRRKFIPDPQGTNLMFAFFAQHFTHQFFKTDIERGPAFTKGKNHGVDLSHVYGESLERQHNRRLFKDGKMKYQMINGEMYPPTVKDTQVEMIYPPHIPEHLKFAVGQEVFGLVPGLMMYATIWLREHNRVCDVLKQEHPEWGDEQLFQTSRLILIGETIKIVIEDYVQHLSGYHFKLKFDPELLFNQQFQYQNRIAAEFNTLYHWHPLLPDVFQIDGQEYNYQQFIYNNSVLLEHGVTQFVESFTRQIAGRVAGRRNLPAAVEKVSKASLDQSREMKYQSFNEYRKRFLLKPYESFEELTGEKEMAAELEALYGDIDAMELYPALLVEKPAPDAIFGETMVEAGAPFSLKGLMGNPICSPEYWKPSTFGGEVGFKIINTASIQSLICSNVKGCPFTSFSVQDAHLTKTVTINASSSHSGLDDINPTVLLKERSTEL

RAW264.7 [2] = assay: In vitro inhibition of NO production at 40 uM concentration in RAW 264.7 cells; assay type: functional; conditions: Mus musculus
RAW264.7 [3] = assay: In vitro inhibition of NO production at 40 uM concentration in RAW 264.7 cells; No activity; assay type: functional, cell-based; conditions: Mus musculus
[4] = target: T1, Prostaglandin G/H synthase 2; assay: In vitro inhibition of Prostaglandin G/H synthase 2 from sheep placental cotyledons

Row | IC50 [1] | IC50 [4] | SMILES | inhibition at 40 µM (RAW264.7 [2]) | inhibition (RAW264.7 [3])
1 | Not Active | – | C=C[C@@]1(C)CC=C2C(CCC3[C@](C)(CO)CCC[C@@]23C)C1 (stereo not given in full) [ACANTHOL] | 84.8% | –
2 | – | – | C=C[C@@]1(C)CC=C2C(CCC3[C@](C)(CCCC(=O)O)CCC[C@@]23C)C1 (stereo not given in full) | 65.2% | –
3 | Not Active | – | C=C[C@@]1(C)CC=C2C(CCC3[C@](C)(C(=O)NC)CCC[C@@]23C)C1 (stereo not given in full) | 85.3% | –
4 | – | – | C=C[C@@]1(C)CC=C2C(CCC3[C@](C)(C/C=C\C(=O)O)CCC[C@@]23C)C1 (stereo not given in full) | 77.9% | –
5 | – | – | C=C[C@@]1(C)CC=C2C(CCC3[C@](C)(CC(=O)O)CCC[C@@]23C)C1 (stereo not given in full) | – | inactive
6 | – | – | C=C[C@@]1(C)CC=C2C(CCC3[C@@]2(C)CCC[C@@]3(C)/C=C/C=C/C(=O)O)C1 (stereo not given in full) | 96.5% | –
7 | – | – | C=C[C@@]1(C)CC=C2C(CCC3[C@](C)(C(=O)NN)CCC[C@@]23C)C1 (stereo not given in full) | 3.4% | –
8 | – | 37.8 µM | C=C[C@@]1(C)CC=C2C(CCC3[C@](C)(CCC/C=C/C(=O)O)CCC[C@@]23C)C1 (stereo not given in full) | 98.2% | –
9 | – | – | C=C[C@@]1(C)CC=C2C(CCC3[C@](C)(CCC(=O)O)CCC[C@@]23C)C1 (stereo not given in full) | 23% | –
10 | – | 60.7 µM | C=C[C@@]1(C)CC=C2C(CCC3[C@](C)(CCC(=O)NS(=O)(=O)c4ccc(I)cc4)CCC[C@@]23C)C1 (stereo not given in full) | 99.5% | –
11 | – | 72.2 µM | C=C[C@@]1(C)CC=C2C(CCC3[C@](C)(CC(=O)NS(=O)(=O)c4ccc(I)cc4)CCC[C@@]23C)C1 (stereo not given in full) | 94.6% | –
12 | Not Active | – | C=C[C@@]1(C)CC=C2C(CCC3[C@](C)(C(=O)n4ccnc4)CCC[C@@]23C)C1 (stereo not given in full) | 99% | –
13 | – | – | C=C[C@@]1(C)CC=C2C(CCC3[C@](C)(CCCCC(=O)O)CCC[C@@]23C)C1 (stereo not given in full) | 99% | –
14 | – | – | C=C[C@@]1(C)CC=C2C(CCC3[C@@]2(C)CCC[C@@]3(C)/C=C/C(=O)O)C1 (stereo not given in full) | 45.1% | –
